According to article PMC3500254, “Potent Inhibition of Late Stages of Hepadnavirus Replication by a Modified Cell Penetrating Peptide” (PLoS ONE, 2012):

Experiments:
[1] = system: Duck Hepatitis B Virus (DHBV); experiment: Intracellular viral RNA and DNA replicative forms in infected PDH (Northern and Southern blot); format: cell-based; conditions: 5 days, 3-TC as control
Experimental: (§1) To determine whether the decrease in DHBV secretion is caused by an inhibition of virus replication, LMH-D2 cells and PDHs were treated with different concentration of Deca-(Arg)8 followed by quantification of viral RNA and intracellular DNA replication intermediates by Northern and Southern blot, respectively. As a control, cells were treated by 3-TC, which is a specific inhibitor of the DHBV polymerase, [33]. […] An unspecific effect on transcription can be excluded as mRNA synthesis in transfected LMH-D2 cells was not impaired.
(§2) Figure 4 Effect of Deca-(Arg)8 on the intracellular hepadnavirus intermediate replicative forms. Infected PDH (A), and stably DHBV-transfected LMH-D2 (B) cells were treated with different amounts of Deca-(Arg)8 ranking from 0.5 µM to 2 µM for 5 days. At the end of treatment, the cells were harvested and lysed for DNA and RNA extraction. […] For the Northern blot the level of DHBV RNA was normalized on the GAPDH RNA amount. […] Bands corresponding to the expected size of relaxed circular (RC), linear (L), single-stranded (SS) and covalently closed circular (ccc) DHBV DNA are indicated. […]
(§3) Cells supernatants were harvested daily, spotted onto positively charged nylon membrane and extracellular DHBV DNA was detected in supernatant of cells by dot blot hybridization assay using a full-length ^32P-labelled DHBV probe as described previously. […]

[2] = system: Duck Hepatitis B Virus (DHBV); experiment: Intracellular viral RNA and DNA replicative forms in LMH-D2 cells (Northern and Southern blot); format: cell-based; conditions: 5 days, Deca-(Arg)8 at 2 µM, 3-TC as control, Northern blot normalized on GAPDH RNA
Experimental: as §1, §2, §3

Nc1ccn([C@@H]2CS[C@H](CO)O2)c(=O)n1 [3-TC, Lamivudine]
viral RNA levels ([1]; PDH, Deca-(Arg)8 at 2 µM, Northern blot normalized on GAPDH RNA): reduction of viral mRNA synthesis
cccDNA ([1]; infected PDH, Deca-(Arg)8 0.5 µM to 2 µM, Southern blot): prevented cccDNA formation
viral RNA levels [2]: not impaired
